Assay results: patent publication US11091478B2 (Fochon Pharmaceuticals, Ltd., priority 2017, dated 2021)

These compounds were tested on DOHH2 cells (assay: Cell proliferation assay (MTS), DOHH2 cells, 120 h). Settings: Homo sapiens, DOHH-2, 120 h.
Format: cell-based
Description: Cell Proliferation Assays
MTS testing kit was purchased from Promega. The RPMI-1640, Fetal bovine serum and Penicillin-Streptomycin were purchased from Gibco. Dimethyl sulfoxide (DMSO) was purchased from Sigma.
To investigate whether a compound is able to inhibit the activity of BCL-2 in cells, a mechanism-based assay using DOHH2 (DSMZ No.® ACC 47) and RS4;11 (ATCC® CRL-1873™) cell was developed. In this assay, inhibition of Bcl-2 was detected by the inhibition of DOHH2 cells proliferation. DOHH2 cells were cultured in culture flasks to 40-80% confluence in RPMI-1640 plus 10% fetal bovine serum. Cells were collected and plated onto 96-well plates at desired cell density (5000 cells/well). Plates were incubated overnight at 37° C., with 5% CO2 to adhere. Compounds were added to the plates, and the final compound concentrations were 10000, 3333, 1111, […], 124, 41, 14, 4.6 and 1.5 nM. Plates plated with DOHH2 or RS4;11 cells were placed at 37° C., with 5% CO2 for 120 h (DOHH2) or 72 h (RS4;11) respectively. 20 μl MTS/100 μl medium mixture solution were added to each well and incubate the plates for exactly 2 hours. The reaction was stopped by adding 25 μl 10% SDS per well. Measure absorbance at 490 nm and 650 nm (reference wavelength). IC50 was calculated using GraphPad Prism 5.0.
Select compounds prepared as described above were assayed according to the biological procedures described herein.

Point of comparison: CN1CCN(CC[C@@H]2CNc3cc(S(=O)(=O)NC(=O)c4ccc(N5CCN(CC6=C(c7ccc(Cl)cc7)CC(C)(C)CC6)CC5)cc4Oc4cnc5[nH]ccc5c4)cc([N+](=O)[O-])c3N2)CC1 [Example 4-5, (R)-2-((1H-pyrrolo[2,3-b]pyridin-5-yl)oxy)-4-(4-((4′-chloro-5,5-dimethyl-3,4,5,6-tetra-hydro-[1,1′-biphenyl]-2-yl)methyl)piperazin-1-yl)-N-((2-(2-(4-methylpiperazin-1-yl)ethyl)-8-nitro-1,2,3,4-tetrahydroquinoxalin-6-yl)sulfonyl)benzamide], IC50 232 nM. Against it:
- CC1(C)CCC(CN2CCN(c3ccc(C(=O)NS(=O)(=O)c4cc5c(c([N+](=O)[O-])c4)N[C@@H](c4ccc(F)cc4)CO5)c(Oc4cnc5[nH]ccc5c4)c3)CC2)=C(c2ccc(Cl)cc2)C1 [Example 2-173, (S)-2-((1H-pyrrolo[2,3-b]pyridin-5-yl)oxy)-4-(4-((4′-chloro-5,5-dimethyl-3,4,5,6-tetra-hydro-[1,1′-biphenyl]-2-yl)methyl)piperazin-1-yl)-N-((3-(4-fluorophenyl)-5-nitro-3,4-dihydro-2H-benzo[b][1,4]oxazin-7-yl)sulfo-nyl)benzamide] — 9.7-fold lower, 24 nM
- CC1(C)CCC(CN2CCN(c3ccc(C(=O)NS(=O)(=O)c4cc5c(c([N+](=O)[O-])c4)N[C@H](CCNC(=O)N4CCOCC4)CO5)c(Oc4cnc5[nH]ccc5c4)c3)CC2)=C(c2ccc(Cl)cc2)C1 [Example 2-59] — 3.1-fold higher, 730 nM
- CC1(C)CCC(CN2CCN(c3ccc(C(=O)NS(=O)(=O)c4cc5c(c([N+](=O)[O-])c4)N[C@H](c4ccc(Cl)cn4)CO5)c(Oc4cnc5[nH]ccc5c4)c3)CC2)=C(c2ccc(Cl)cc2)C1 [Example 2-217, (R)-2-((1H-pyrrolo[2,3-b]pyridin-5-yl)oxy)-4-(4-((4′-chloro-5,5-dimethyl-3,4,5,6-tetra-hydro-[1,1′-biphenyl]-2-yl)methyl)piperazin-1-yl)-N-((3-(5-chloropyridin-2-yl)-5-nitro-3,4-dihydro-2H-benzo[b][1,4]oxazin-7-yl)sulfonyl)benzamide] — 3.1-fold higher, 715 nM
- CN=S1(=O)CCN(C[C@H]2COc3cc(S(=O)(=O)NC(=O)c4ccc(N5CCN(CC6=C(c7ccc(Cl)cc7)CC(C)(C)CC6)CC5)cc4Oc4cnc5[nH]ccc5c4)cc([N+](=O)[O-])c3N2)CC1 [Example 2-122, (S)-2-((1H-pyrrolo[2,3-b]pyridin-5-yl)oxy)-4-(4-((4′-chloro-5,5-dimethyl-3,4,5,6-tetra-hydro-[1,1′-biphenyl]-2-yl)methyl)piperazin-1-yl)-N-((3-((1-(methylimino)-1-oxido-1λ^6-thiomorpholino)methyl)-5-nitro-3,4-di-hydro-2H-benzo[b][1,4]oxazin-7-yl)sulfonyl)benzamide] — 2.8-fold higher, 660 nM
- CC(=O)NCC[C@@H]1COc2cc(S(=O)(=O)NC(=O)c3ccc(N4CCN(CC5=C(c6ccc(Cl)cc6)CC(C)(C)CC5)CC4)cc3Oc3cnc4[nH]ccc4c3)cc([N+](=O)[O-])c2N1 [Example 2-62, (R)-2-((1H-pyrrolo[2,3-b]pyridin-5-yl)oxy)-N-((3-(2-acetamidoethyl)-5-nitro-3,4-di-hydro-2H-benzo[b][1,4]oxazin-7-yl)sulfonyl)-4-(4-((4′-chloro-5,5-dimethyl-3,4,5,6-tetra-hydro-[1,1′-biphenyl]-2-yl)methyl)piperazin-1-yl)benzamide] — within 1.5-fold, 230 nM
- CC1(C)CCC(CN2CCN(c3ccc(C(=O)NS(=O)(=O)c4cc5c(c([N+](=O)[O-])c4)N[C@H](c4ccc(C#N)cc4)CO5)c(Oc4cnc5[nH]ccc5c4)c3)CC2)=C(c2ccc(Cl)cc2)C1 [Example 2-170, (R)-2-((1H-pyrrolo[2,3-b]pyridin-5-yl)oxy)-4-(4-((4′-chloro-5,5-dimethyl-3,4,5,6-tetra-hydro-[1,1′-biphenyl]-2-yl)methyl)piperazin-1-yl)-N-((3-(4-cyanophenyl)-5-nitro-3,4-dihydro-2H-benzo[b][1,4]oxazin-7-yl)sulfo-nyl)benzamide] — 2-fold higher, 464 nM
